Measurements taken from PMC2156105 (The Journal of biological chemistry, 2007).

Key:
[1] = target: AMPK γ2 subunit (Bateman domains) (Homo sapiens, UniProt Q9UGJ0); assay: scintillation proximity assay, displacement of [3H]AMP by unlabelled AMP; assay type: binding
[2] = target: AMP-activated protein kinase (AMPK), native rat liver αβγ complex (γ1 subunit) (Rattus norvegicus, UniProt P80385); assay: kinase activity assay of purified rat liver AMPK; assay type: biochemical
AMP-activated protein kinase (AMPK), native rat liver αβγ complex (γ1 subunit), sequence (P80385 whole entry): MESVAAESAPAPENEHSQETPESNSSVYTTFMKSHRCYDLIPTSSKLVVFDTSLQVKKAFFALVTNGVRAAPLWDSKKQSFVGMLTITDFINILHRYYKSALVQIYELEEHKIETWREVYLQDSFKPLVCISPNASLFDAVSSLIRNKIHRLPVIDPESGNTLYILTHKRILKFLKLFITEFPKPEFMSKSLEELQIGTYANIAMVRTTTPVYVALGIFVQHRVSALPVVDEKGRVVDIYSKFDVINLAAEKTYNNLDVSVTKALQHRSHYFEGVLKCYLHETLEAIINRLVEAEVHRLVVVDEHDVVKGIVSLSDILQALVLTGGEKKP
AMP-activated protein kinase (AMPK), native rat liver αβγ complex (γ1 subunit), sequence (P54645 whole entry partner): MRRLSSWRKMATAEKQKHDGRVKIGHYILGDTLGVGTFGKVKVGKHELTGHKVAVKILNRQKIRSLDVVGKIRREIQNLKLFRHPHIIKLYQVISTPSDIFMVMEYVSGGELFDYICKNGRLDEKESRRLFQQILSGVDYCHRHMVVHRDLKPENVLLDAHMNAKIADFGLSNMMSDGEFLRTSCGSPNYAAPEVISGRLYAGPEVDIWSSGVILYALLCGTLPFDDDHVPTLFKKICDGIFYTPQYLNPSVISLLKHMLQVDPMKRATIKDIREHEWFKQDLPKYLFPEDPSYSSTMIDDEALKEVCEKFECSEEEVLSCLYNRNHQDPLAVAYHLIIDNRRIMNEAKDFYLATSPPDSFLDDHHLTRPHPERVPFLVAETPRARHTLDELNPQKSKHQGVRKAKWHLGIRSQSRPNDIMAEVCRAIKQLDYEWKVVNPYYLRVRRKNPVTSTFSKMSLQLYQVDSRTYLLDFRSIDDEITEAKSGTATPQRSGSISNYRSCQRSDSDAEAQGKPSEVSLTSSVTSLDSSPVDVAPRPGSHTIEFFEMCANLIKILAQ
AMP-activated protein kinase (AMPK), native rat liver αβγ complex (γ1 subunit), sequence (Q09137 whole entry partner): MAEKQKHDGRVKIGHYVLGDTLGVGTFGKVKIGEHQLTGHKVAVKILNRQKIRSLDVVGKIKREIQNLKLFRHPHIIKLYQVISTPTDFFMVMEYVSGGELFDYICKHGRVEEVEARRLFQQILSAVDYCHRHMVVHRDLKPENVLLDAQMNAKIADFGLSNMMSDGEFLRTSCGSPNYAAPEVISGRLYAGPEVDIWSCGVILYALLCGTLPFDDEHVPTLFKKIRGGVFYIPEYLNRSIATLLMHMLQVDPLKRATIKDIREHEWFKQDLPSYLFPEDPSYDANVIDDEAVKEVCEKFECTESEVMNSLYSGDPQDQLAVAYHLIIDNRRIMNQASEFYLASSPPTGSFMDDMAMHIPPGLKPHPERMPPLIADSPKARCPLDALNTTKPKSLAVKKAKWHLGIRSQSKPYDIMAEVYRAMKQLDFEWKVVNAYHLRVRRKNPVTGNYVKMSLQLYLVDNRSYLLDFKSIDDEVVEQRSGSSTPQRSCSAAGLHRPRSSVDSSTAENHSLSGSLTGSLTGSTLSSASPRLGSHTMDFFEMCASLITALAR
AMP-activated protein kinase (AMPK), native rat liver αβγ complex (γ1 subunit), sequence (P80386 2-270 partner): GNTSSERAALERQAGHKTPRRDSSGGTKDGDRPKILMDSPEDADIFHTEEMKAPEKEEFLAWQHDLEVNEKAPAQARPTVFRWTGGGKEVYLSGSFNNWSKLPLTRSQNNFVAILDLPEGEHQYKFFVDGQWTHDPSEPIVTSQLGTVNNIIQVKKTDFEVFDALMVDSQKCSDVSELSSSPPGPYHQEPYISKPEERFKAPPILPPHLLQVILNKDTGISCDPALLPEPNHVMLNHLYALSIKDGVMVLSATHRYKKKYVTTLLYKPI

AMPK γ2 subunit (Bateman domains), sequence (Q9UGJ0 275-562 limits assumed): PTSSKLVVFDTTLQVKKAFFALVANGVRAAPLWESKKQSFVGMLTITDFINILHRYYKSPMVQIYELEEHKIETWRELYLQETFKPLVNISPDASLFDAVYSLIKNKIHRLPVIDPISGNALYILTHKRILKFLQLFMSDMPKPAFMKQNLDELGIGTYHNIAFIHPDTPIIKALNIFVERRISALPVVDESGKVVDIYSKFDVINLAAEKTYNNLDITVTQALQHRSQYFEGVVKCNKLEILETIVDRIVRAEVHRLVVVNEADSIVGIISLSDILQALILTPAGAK

Kd [1]: 80 ± 15 µM
EC50 [2]: 6 ± 3 µM
SMILES: Nc1ncnc2c1ncn2[C@@H]1O[C@H](COP(=O)(O)O)[C@@H](O)[C@H]1O [AMP]
